SMILES strings stand for the structures.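 Assay format: 96-well plates, 48-hour exposure. TGI: concentration producing complete growth inhibition.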 Some results are limits rather than exact numbers.

Data on eight compounds can be found in PubChem BioAssay (NCI).

Test systems include DU-145 prostate; SF-295 CNS; HCC-2998 colon; NCI-H226 lung; EKVX NSCLC; HOP-92 NSCLC; M14 melanoma; SN12C renal; T-47D breast; SNB-75 CNS; SW-620 colon; CAKI-1 renal; KM12 colon; K-562 leukemia; NCI-H23 lung; SK-OV-3 ovarian; ACHN renal; BT-549 breast; SK-MEL-2 melanoma.
Common to all, as to assay: inhibition of tumour cell growth, NCI panel, 48 h

For the compound `COc1ccc(C(=O)Oc2c(C#N)sc3c2c(=O)n(-c2ccccc2)c(=S)n3-c2ccccc2)cc1`, the TGI was > 100 µM in the experiment with DU-145 prostate; > 100 µM in the experiment with SF-295 CNS; 84.8 µM in the experiment with HCC-2998 colon; 57 µM in the experiment on NCI-H226 lung; 31.3 µM in the experiment with EKVX NSCLC; 67.5 µM in the experiment with HOP-92 NSCLC. Besides, the TGI with M14 melanoma is 44.8 µM; in the experiment with SN12C renal, 68.2 µM; with T-47D breast, > 100 µM; in the experiment on SNB-75 CNS, > 100 µM; in the experiment on SW-620 colon, > 100 µM; in the experiment on CAKI-1 renal it was 68.9 µM. The TGI with KM12 colon is 54.6 µM; with K-562 leukemia it was > 100 µM; with NCI-H23 lung, 56.3 µM; in the experiment with SK-OV-3 ovarian, > 100 µM; with ACHN renal it was > 100 µM.

With `O=c1cc(CNC2CC3CCC2C3)[nH]c(=O)[nH]1` (stereo unspecified), the TGI with DU-145 prostate, in the experiment with SF-295 CNS, with HCC-2998 colon, with EKVX NSCLC, in the experiment on M14 melanoma and in the experiment on SN12C renal was > 100 µM in each case. Also, the TGI with T-47D breast, in the experiment on SNB-75 CNS, with SW-620 colon, in the experiment on CAKI-1 renal, with KM12 colon and in the experiment on K-562 leukemia was > 100 µM in each case. Moreover, the TGI with NCI-H23 lung, with SK-OV-3 ovarian, in the experiment with BT-549 breast, with SK-MEL-2 melanoma and in the experiment with ACHN renal was > 100 µM throughout.

As to `CCC(C)N1CN(c2ccccc2)C2(CCN(CCCSc3ccc(F)cc3)CC2)C1=O` (stereo unspecified), the TGI in the experiment with DU-145 prostate came to 10.1 µM; with SF-295 CNS, 5.57 µM; in the experiment on HCC-2998 colon it was 4.22 µM; with NCI-H226 lung, 17 µM; in the experiment on EKVX NSCLC it was 10.4 µM; in the experiment on M14 melanoma, 7.08 µM. Moreover, the TGI was > 100 µM in the experiment on SN12C renal; 10.2 µM in the experiment on T-47D breast; 25 µM with SNB-75 CNS; 17.3 µM in the experiment on SW-620 colon; 11 µM in the experiment with CAKI-1 renal; 15.2 µM in the experiment on KM12 colon. Besides, the TGI in the experiment with K-562 leukemia was found to be 6.26 µM; in the experiment on NCI-H23 lung it was 16 µM; in the experiment on SK-OV-3 ovarian, 19.1 µM; in the experiment with BT-549 breast, 6.99 µM; in the experiment on ACHN renal it was 9.76 µM.

For `N#Cc1c(-c2ccccc2)cc(-c2ccccc2)n(C2OCC(O)C(O)C2O)c1=S` (stereo unspecified), the TGI with DU-145 prostate turned out to be 49.3 µM; with SF-295 CNS, 39 µM; with NCI-H226 lung, 35.9 µM; in the experiment on EKVX NSCLC, 90.2 µM; in the experiment on M14 melanoma, 53.3 µM; in the experiment on T-47D breast, 26.6 µM. Further, the TGI was 66.3 µM in the experiment on SNB-75 CNS; 33.5 µM with SW-620 colon; 61.5 µM in the experiment with CAKI-1 renal; 27.2 µM in the experiment with KM12 colon; > 100 µM with K-562 leukemia; 46.4 µM in the experiment on NCI-H23 lung. The TGI in the experiment with SK-OV-3 ovarian came to 27.3 µM; with BT-549 breast, 44 µM; in the experiment with SK-MEL-2 melanoma, 62.3 µM; in the experiment on ACHN renal it was 38.1 µM.

For the compound `COc1ccc(-n2c(C)nc3ccc(NC4OC(CO)C(O)C(O)C4O)cc3c2=O)cc1` (stereo unspecified), the TGI in the experiment on DU-145 prostate, in the experiment with SF-295 CNS, in the experiment on HCC-2998 colon, in the experiment on NCI-H226 lung, in the experiment with EKVX NSCLC and in the experiment with SN12C renal was > 100 µM each time. For the same compound, the TGI in the experiment on T-47D breast, in the experiment with SNB-75 CNS, in the experiment on SW-620 colon, with CAKI-1 renal, with KM12 colon and in the experiment with K-562 leukemia was > 100 µM throughout. In addition, the TGI in the experiment with NCI-H23 lung, in the experiment on BT-549 breast, in the experiment on SK-MEL-2 melanoma and with ACHN renal was > 100 µM in each case.

For the compound `C=C(CCC=C(C)C)C1CC=C(C)CC1` (stereo unspecified), the TGI was 71.1 µM in the experiment on DU-145 prostate; 45 µM in the experiment with SF-295 CNS; > 100 µM in the experiment with NCI-H226 lung; 92.7 µM with EKVX NSCLC; > 100 µM in the experiment on M14 melanoma; 41.3 µM in the experiment with SN12C renal. For the same compound, the TGI with T-47D breast is > 100 µM; in the experiment with SW-620 colon, 53.6 µM; in the experiment with CAKI-1 renal, 42.2 µM; in the experiment on KM12 colon, 52.6 µM; in the experiment on NCI-H23 lung it was 34.9 µM; with SK-OV-3 ovarian, > 100 µM. For the same compound, the figures for the TGI in the experiment with BT-549 breast, in the experiment with SK-MEL-2 melanoma and in the experiment on ACHN renal were > 100 µM, 37.5 µM and 33.4 µM, respectively.

For `O=[N+]([O-])/C=C/c1cn(CCCCCCCCCCCCn2cc(/C=C/[N+](=O)[O-])c3ccccc32)c2ccccc12`, the TGI in the experiment with DU-145 prostate, in the experiment on HCC-2998 colon, in the experiment with NCI-H226 lung, in the experiment with EKVX NSCLC, in the experiment with HOP-92 NSCLC and in the experiment on M14 melanoma was > 100 µM in each case. Also, the TGI in the experiment on SN12C renal, with SW-620 colon, in the experiment with CAKI-1 renal, with KM12 colon, in the experiment with NCI-H23 lung and in the experiment on SK-OV-3 ovarian was > 100 µM each time. Besides, the TGI with BT-549 breast, in the experiment with SK-MEL-2 melanoma and in the experiment on ACHN renal was > 100 µM each time.

Take `Nc1ccc(-c2nc3ccc(F)cc3s2)cc1I`: the TGI in the experiment on DU-145 prostate, with SF-295 CNS, in the experiment with HCC-2998 colon, with NCI-H226 lung, in the experiment on EKVX NSCLC and with HOP-92 NSCLC was > 100 µM in each case. The TGI with M14 melanoma is > 100 µM; with SN12C renal, > 100 µM; in the experiment with SNB-75 CNS it was > 76.1 µM; in the experiment on SW-620 colon, > 100 µM; in the experiment with CAKI-1 renal, > 100 µM; with KM12 colon it was > 100 µM. The TGI in the experiment with K-562 leukemia, in the experiment on NCI-H23 lung, with SK-OV-3 ovarian, in the experiment on BT-549 breast, in the experiment with SK-MEL-2 melanoma and in the experiment with ACHN renal was > 100 µM throughout.
